In patent US6737383B1, “Herbicidal oxadiazolidines” (priority 1999, dated 2004):

Assays:
bedstraw = experiment: Test B pre/postemergence bedstraw; type: in vivo, Galium aparine
How it was run: (§1)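 Response is a visual 0-to-10 score relative to untreated plants, where 0 means no effect and 10 means complete control, taken twelve to sixteen days after application. Treatments went onto soil at planting and onto foliage of 1- to 4-leaf plants, using a surfactant-containing non-phytotoxic solvent.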

morningglory = experiment: Test B pre/postemergence morningglory; type: in vivo, Ipomoea hederacea
How it was run: as §1

velvetleaf = experiment: Test B pre/postemergence velvetleaf; type: in vivo, Abutilon theophrasti
How it was run: as §1

wild oat = experiment: Test B pre/postemergence wild oat; type: in vivo, Avena fatua
How it was run: as §1

[1] = Postemergence, Rate 125 g/ha, scale 0 to 10, 0 is no effect, 10 is complete control
[2] = Postemergence, Rate 250 g/ha, scale 0 to 10, 0 is no effect, 10 is complete control
[3] = Preemergence, Rate 62 g/ha, scale 0 to 10 (0 no effect, 10 complete control)
[4] = Preemergence, Rate 250 g/ha, scale of 0 to 10 where 0 is no effect and 10 is complete control
[5] = Rate 62 g/ha, Postemergence, scale of 0 to 10 where 0 is no effect and 10 is complete control
[6] = Rate 500 g/ha, Postemergence, scale 0 to 10, 0 no effect, 10 complete control
[7] = Preemergence, Rate 500 g/ha, scale of 0 to 10 where 0 is no effect and 10 is complete control
[8] = Postemergence, Rate 250 g/ha, scale 0 to 10
[9] = Postemergence, Rate 500 g/ha, scale of 0 to 10 where 0 is no effect and 10 is complete control
[10] = Rate 125 g/ha, Postemergence, scale 0 to 10, 0 is no effect, 10 is complete control
[11] = Preemergence, Rate 125 g/ha, scale of 0 to 10 where 0 is no effect and 10 is complete control
[12] = Preemergence, Rate 250 g/ha, scale 0 to 10, 0 is no effect, 10 is complete control
[13] = Preemergence, Rate 500 g/ha, scale 0 to 10, 0 is no effect, 10 is complete control
[14] = Preemergence, Rate 62 g/ha, scale of 0 to 10 where 0 is no effect and 10 is complete control
[15] = Rate 62 g/ha, Postemergence, scale 0 to 10 (0 no effect, 10 complete control)
[16] = Postemergence, Rate 62 g/ha, scale of 0 to 10, 0 is no effect, 10 is complete control
[17] = Postemergence, Rate 500 g/ha, scale 0 to 10, 0 is no effect, 10 is complete control
[18] = Preemergence, Rate 125 g/ha, scale 0 to 10, 0 is no effect, 10 is complete control
[19] = Rate 250 g/ha, Postemergence, scale of 0 to 10 where 0 is no effect and 10 is complete control

CCOc1nc(C(F)(F)F)c(Cn2c(=O)on(C(=O)N(c3ccccc3)C(C)C)c2=O)s1 [Compound 379]
Plant response rating, Bedstraw (bedstraw; [1]): 0 | Plant response rating, Bedstraw (bedstraw; [2]): 0 | Plant response rating, Bedstraw (bedstraw; [3]): 0 | Bedstraw plant response rating (0 to 10 scale) (bedstraw; Preemergence, Rate 125 g/ha): 0 | Bedstraw plant response rating (bedstraw; [4]): 0 | Bedstraw plant response rating (bedstraw; [5]): 0 | Plant response rating, Bedstraw (bedstraw; [6]): 0 | Plant response rating, Morningglory (morningglory; [1]): 7 | Plant response rating, Morningglory (morningglory; [2]): 8 | Plant response rating, Morningglory (morningglory; [3]): 0 | Morningglory plant response rating (0 to 10 scale) (morningglory; Preemergence, Rate 125 g/ha): 0 | Morningglory plant response rating (morningglory; [4]): 0 | Morningglory plant response rating (morningglory; [7]): 0 | Morningglory plant response rating (morningglory; [5]): 5 | Plant response rating, Morningglory (morningglory; [6]): 10 | Plant response rating, Velvetleaf (velvetleaf; [1]): 0 | Plant response rating, Velvetleaf (velvetleaf; [2]): 0 | Plant response rating, Velvetleaf (velvetleaf; [3]): 0 | Velvetleaf plant response rating (0 to 10 scale) (velvetleaf; Preemergence, Rate 125 g/ha): 0 | Velvetleaf plant response rating (velvetleaf; [4]): 0 | Velvetleaf plant response rating (velvetleaf; [7]): 0 | Velvetleaf plant response rating (velvetleaf; [5]): 0 | Plant response rating, Velvetleaf (velvetleaf; [6]): 0 | Plant response rating, Wild oats (wild oat; [1]): 0 | Plant response rating, Wild oats (wild oat; [2]): 0 | Plant response rating, Wild oats (wild oat; [3]): 0 | Wild oats plant response rating (0 to 10 scale) (wild oat; Preemergence, Rate 125 g/ha): 0 | Wild oats plant response rating (wild oat; [4]): 0 | Wild oats plant response rating (wild oat; [7]): 0 | Wild oats plant response rating (wild oat; [5]): 0 | Plant response rating, Wild oats (wild oat; [6]): 0

CCOc1nc(C(F)(F)F)c(Cn2c(=O)on(C(=O)N(c3ccc(F)cc3)C(C)C)c2=O)s1 [Compound 381]
Plant response rating, Bedstraw (bedstraw; [1]): 0 | Plant response rating, Bedstraw (bedstraw; [2]): 0 | Plant response rating, Bedstraw (bedstraw; [3]): 0 | Bedstraw plant response rating (0 to 10 scale) (bedstraw; Preemergence, Rate 125 g/ha): 0 | Bedstraw plant response rating (bedstraw; [4]): 0 | Bedstraw plant response rating (bedstraw; [7]): 0 | Bedstraw plant response rating (bedstraw; [5]): 0 | Plant response rating, Bedstraw (bedstraw; [6]): 0 | Plant response rating, Morningglory (morningglory; [1]): 2 | Plant response rating, Morningglory (morningglory; [2]): 2 | Plant response rating, Morningglory (morningglory; [3]): 0 | Morningglory plant response rating (0 to 10 scale) (morningglory; Preemergence, Rate 125 g/ha): 0 | Morningglory plant response rating (morningglory; [4]): 0 | Morningglory plant response rating (morningglory; [7]): 0 | Morningglory plant response rating (morningglory; [5]): 2 | Plant response rating, Morningglory (morningglory; [6]): 7 | Plant response rating, Velvetleaf (velvetleaf; [1]): 0 | Plant response rating, Velvetleaf (velvetleaf; [2]): 0 | Plant response rating, Velvetleaf (velvetleaf; [3]): 0 | Velvetleaf plant response rating (0 to 10 scale) (velvetleaf; Preemergence, Rate 125 g/ha): 0 | Velvetleaf plant response rating (velvetleaf; [4]): 0 | Velvetleaf plant response rating (velvetleaf; [7]): 0 | Velvetleaf plant response rating (velvetleaf; [5]): 0 | Plant response rating, Velvetleaf (velvetleaf; [6]): 0 | Plant response rating, Wild oats (wild oat; [1]): 0 | Plant response rating, Wild oats (wild oat; [2]): 0 | Plant response rating, Wild oats (wild oat; [3]): 0 | Wild oats plant response rating (0 to 10 scale) (wild oat; Preemergence, Rate 125 g/ha): 0 | Wild oats plant response rating (wild oat; [4]): 0 | Wild oats plant response rating (wild oat; [7]): 0 | Wild oats plant response rating (wild oat; [5]): 0 | Plant response rating, Wild oats (wild oat; [6]): 0

CC(C)N(C(=O)n1oc(=O)n(C[Si](C)(C)c2ccccc2)c1=O)c1ccc(Cl)cc1 [Compound 424]
Bedstraw plant response rating (bedstraw; [8]): 0 | Bedstraw plant response rating (bedstraw; [9]): 0 | Bedstraw plant response rating (bedstraw; [5]): 0 | Bedstraw plant response rating (bedstraw; [10]): 0 | Morningglory plant response rating (morningglory; [8]): 0 | Morningglory plant response rating (morningglory; [9]): 1 | Plant response rating, Morningglory (morningglory; [3]): 0 | Plant response rating, Morningglory (morningglory; [11]): 0 | Morningglory plant response rating (morningglory; [12]): 0 | Morningglory plant response rating (morningglory; [13]): 0 | Morningglory plant response rating (morningglory; [10]): 0 | Velvetleaf plant response rating (velvetleaf; [8]): 0 | Velvetleaf plant response rating (velvetleaf; [9]): 0 | Plant response rating, Velvetleaf (velvetleaf; [3]): 0 | Plant response rating, Velvetleaf (velvetleaf; [11]): 0 | Velvetleaf plant response rating (velvetleaf; [12]): 0 | Velvetleaf plant response rating (velvetleaf; [13]): 0 | Velvetleaf plant response rating (velvetleaf; [10]): 0 | Wild oats plant response rating (wild oat; [8]): 0 | Wild oats plant response rating (wild oat; [9]): 0 | Plant response rating, Wild oats (wild oat; [3]): 0 | Plant response rating, Wild oats (wild oat; [11]): 0 | Wild oats plant response rating (wild oat; [12]): 0 | Wild oats plant response rating (wild oat; [13]): 0 | Wild oats plant response rating (wild oat; [10]): 0

CC(C)N(C(=O)n1oc(=O)n(CC(=O)N(C)C)c1=O)c1ccc(F)cc1F [Compound 440]
Bedstraw plant response rating (bedstraw; [8]): 2 | Bedstraw plant response rating (bedstraw; [10]): 0 | Morningglory plant response rating (morningglory; [8]): 8 | Plant response rating, Morningglory (morningglory; [14]): 0 | Plant response rating, Morningglory (morningglory; [11]): 0 | Morningglory plant response rating (morningglory; [12]): 0 | Morningglory plant response rating (morningglory; [13]): 0 | Morningglory plant response rating (morningglory; [15]): 2 | Morningglory plant response rating (morningglory; [10]): 8 | Velvetleaf plant response rating (velvetleaf; [8]): 0 | Velvetleaf plant response rating (velvetleaf; [9]): 2 | Plant response rating, Velvetleaf (velvetleaf; [14]): 0 | Plant response rating, Velvetleaf (velvetleaf; [11]): 0 | Velvetleaf plant response rating (velvetleaf; [12]): 0 | Velvetleaf plant response rating (velvetleaf; [13]): 7 | Velvetleaf plant response rating (velvetleaf; [15]): 0 | Velvetleaf plant response rating (velvetleaf; [10]): 0 | Wild oats plant response rating (wild oat; [8]): 0 | Wild oats plant response rating (wild oat; [9]): 5 | Plant response rating, Wild oats (wild oat; [14]): 0 | Plant response rating, Wild oats (wild oat; [11]): 5 | Wild oats plant response rating (wild oat; [12]): 9 | Wild oats plant response rating (wild oat; [13]): 9 | Wild oats plant response rating (wild oat; [15]): 0 | Wild oats plant response rating (wild oat; [10]): 0

CCC=CCn1c(=O)on(C(=O)N(c2ccc(Cl)cc2)C(C)C)c1=O [Compound 552]
Bedstraw plant response rating (bedstraw; [16]): 2 | Bedstraw plant response rating (bedstraw; [1]): 5 | Plant response rating, Bedstraw (bedstraw; [17]): 10 | Bedstraw plant response rating (bedstraw; [3]): 0 | Bedstraw plant response rating (bedstraw; [18]): 0 | Bedstraw plant response rating (0 to 10 scale) (bedstraw; Preemergence, Rate 250 g/ha): 0 | Bedstraw plant response rating (bedstraw; [7]): 8 | Plant response rating, Bedstraw (bedstraw; [19]): 10 | Morningglory plant response rating (morningglory; [16]): 1 | Morningglory plant response rating (morningglory; [1]): 1 | Plant response rating, Morningglory (morningglory; [17]): 7 | Morningglory plant response rating (morningglory; [3]): 0 | Morningglory plant response rating (morningglory; [18]): 0 | Morningglory plant response rating (0 to 10 scale) (morningglory; Preemergence, Rate 250 g/ha): 0 | Morningglory plant response rating (morningglory; [7]): 0 | Plant response rating, Morningglory (morningglory; [19]): 2 | Velvetleaf plant response rating (velvetleaf; [16]): 0 | Plant response rating, Velvetleaf (velvetleaf; [17]): 3 | Velvetleaf plant response rating (velvetleaf; [3]): 0 | Velvetleaf plant response rating (velvetleaf; [18]): 0 | Velvetleaf plant response rating (0 to 10 scale) (velvetleaf; Preemergence, Rate 250 g/ha): 0 | Velvetleaf plant response rating (velvetleaf; [7]): 0 | Plant response rating, Velvetleaf (velvetleaf; [19]): 2 | Wild oats plant response rating (wild oat; [16]): 0 | Plant response rating, Wild oats (wild oat; [17]): 3 | Wild oats plant response rating (wild oat; [3]): 0 | Wild oats plant response rating (wild oat; [18]): 0 | Wild oats plant response rating (0 to 10 scale) (wild oat; Preemergence, Rate 250 g/ha): 0 | Wild oats plant response rating (wild oat; [7]): 6 | Plant response rating, Wild oats (wild oat; [19]): 0
